Source: publication PMC9450014, “The evaluation of ADME and pharmacokinetic properties of decoquinate derivatives for the treatment of malaria” (Frontiers in Pharmacology, 2022)

What was measured:
[1] = Lipophilicity, 1-octanol/phosphate buffer pH 7.4 (LogD7.4); format: physicochemical
Protocol: Stock solutions ([…]) of compounds were diluted to 100 μM in 96-well deep-well plate containing 1-octanol and phosphate buffer at pH 7.4. The plate was agitated on an orbital shaker at 750 rpm for 2 h. The organic and buffer layers of each well were transferred separately to a new analysis plate. The samples were analysed with the HPLC-diode array detection as described for kinetic solubility. Samples from both layers were analysed to determine LogD7.4 values.

[2] = Metabolic stability in mouse liver microsomes; format: in vitro ADME
Protocol: (§1) A 5-point metabolic stability assay in human and mouse liver microsomes were performed in duplicate in 96-well plates. Stock solution of RMB005, −059 and 060 prepared in DMSO were individually incubated at 37°C in mouse and pooled human liver microsomes (0.4 mg/mL). An aliquot was removed at 0 min and quenched with ice cold acetonitrile containing the internal standard carbamazepine (0.1 μM). The cofactor NADPH was added, and the reactions were subsequently stopped at time points 5, 10, 30, and 60 min by removal of an aliquot and quenching with ice cold acetonitrile containing the internal standard. The supernatant of all samples were analysed via LC-MS/MS analysis (reverse phase Gemini NX-C18 column and Shimadzu HPLC and AB Sciex 3200 Q TRAP MS). Calculation of in vitro t1/2, intrinsic clearance rate (CLint) and predicted in vivo clearance (CLH) was carried out using the following equations ([Obach 1999]). CLintClint= 0.693/t1/2(min) ×Volume of incubation (μL)/microsomal protein (μg) Where t1/2 is calculated in minutes.
(§2) Predicted in vivo CLH CLH=Q × fu(plasma)×CLint/fu(mic)/Q+ fu(plasma)× CLint/fu(mic) Where Q is the hepatic blood flow of mouse (90 mL/min/kg) or human (20.7 mL/min/kg). Fu(plasma) is the unbound drug fraction in the plasma and fu(mic) is the unbound fraction in the microsomes.
(§3) The equation below was used in the case of RMB059 and -060, where protein-binding data were not available. CLH=Q × CLint/Q+ CLint

[3] = system: multidrug resistant Pf K1; parameters: method as in Beteck et al., 2018; conditions: ref Beteck et al., 2018; read-out: IC50 against multidrug resistant Pf K1; cited from earlier work
[4] = Plasma protein binding (ultracentrifugation); format: in vitro ADME; conditions: pooled plasma; human plasma; read-out: Bound to plasma proteins (converted)
Protocol: Plasma protein binding was determined in pooled human plasma using an ultracentrifugation method. Stock solutions of test compounds were diluted in phosphate buffer and spiked into plasma in deep well 96-well plates. An aliquot of each compound was immediately precipitated with ice cold acetonitrile containing the internal standard carbamazepine (0.1 μM). These served as total concentration samples. After incubation in a water bath (37°C for 1 h), samples were transferred to ultracentrifuge tubes in duplicate and centrifuged for 4 h at 37°C and 30,000 g (Optima L-80XP, Beckman). Following centrifugation, the supernatant was transferred to the plate containing the total concentration samples and precipitated with ice cold acetonitrile containing the internal standard. Samples were analysed by LC-MS/MS (Shimadzu HPLC coupled with an AB Sciex 3200 Q TRAP MS). Non-specific binding in mouse liver microsomes (MLM) and human liver microsomes (HLM) were also determined with the ultracentrifugation method. Stock solutions of compounds (10 mM) were added in duplicate to microsome solution (0.5 mg/mL) in phosphate buffer (pH 7.4) to obtain a final drug concentration of 1 μM. The same method as for plasma protein binding was utilized. Analyte concentrations of all compounds were determined via LC-MS/MS (reverse phase Gemini NX-C18 column and Shimadzu HPLC coupled with an AB Sciex 3200 Q TRAP MS).

[5] = Metabolic stability in human liver microsomes; format: in vitro ADME
Protocol: as §1, §2, §3

[6] = In vivo pharmacokinetics, intravenous administration; parameters: species or system C57BL/6 mice; conditions: C57BL/6, mouse, iv, mice, whole blood, dosed compound measured
Protocol: Healthy C57BL/6 mice each weighing approximately 25 g were maintained at the University of Cape Town animal facility. Mice were housed in 27 × 21 × 28 cm cages (n = 3) under controlled environmental conditions at 22 ± 2°C, humidity of 55 ± 15% and a 12-hour light/dark cycle. Food and water were available ad libitum. Mice were acclimatised to the experimental environment for 4–5 days prior to initiating the experiments. […] The total volume of administration was 80 μL. Blood samples were collected post-dose in lithium heparin microvials via tail bleeding at predetermined intervals at 0.16, 0.5, 1, 3, 5, 8, 10, and 24 h. Samples were gently vortexed and stored at −80°C until analysis. A quantitative LC-MS/MS assay was used to determine whole-blood concentrations of RMB005, −059 and −060. Whole blood samples (20 μL) were treated with 100 μL ice cold acetonitrile containing the compound RMB073 used previously for determination of whole blood concentrations in analysis of TB-active compounds, as internal standard (200 ng/ml) ([Tanner et al., 2019]). The mixture was vortexed vigorously for 1 min, and 5 µL of the supernatant were injected onto the analytical column following centrifugation (5,590 g for 5 min). Gradient elution was carried out using a Gemini NX-C18 analytical column (5 μm, 2.1 mm × 50 mm). The aqueous mobile phase consisted of 5 mm ammonium acetate with 0.1% acetic acid in deionised water, while the organic phase consisted of 0.1% acetic acid in acetonitrile. A Shimadzu HPLC and reverse phase Gemini NX-C18 column coupled to an AB Sciex 3200 Q TRAP MS was operated at unit resolution in the multiple reaction monitoring (MRM) mode. […] The calibration standards ranged from 2 ng/mL to 3,000 ng/mL for RMB005, and 2 ng/mL to 4,000 ng/mL for RMB059, −060 and DQ. Drug concentration versus time plots for each compound were used to determine maximal drug concentration C max, time T max to reach C max, elimination half-life t 1/2 and the area under the concentration-time curve from time zero to infinity, AUC0-inf. From these values the following PK parameters—clearance CL, volume of distribution (Vd) and oral bioavailability (BA) were determined using the non-compartmental analysis Microsoft Excel Add-In PKSolver ([Zhang et al., 2010]).

Q: With `CCCCCCCCCCOc1cc2c(=O)c(C(=O)NCCOCCO)c[nH]c2cc1OCC` [RMB005] as the compound, how does the logD at 2 h [1] read?
A: Its logD at 2 h is 3.2.

Q: And the half-life ([2]; mouse liver microsomes, NADPH, read-out: Degradation half-life MLM)?
A: The half-life was 1.22 h.

Q: And the CLint scaled ([2]; mouse, liver microsomes, calculated from t1/2 in MLM, read-out: In vitro CLint MLM)?
A: The CLint scaled was 104 mL/min/kg.

Q: What about the “Estimated in vivo CLH MLM” value ([2]; protein binding data included) of the same compound?
A: The value was 81.2 mL/min/kg.

Q: And the IC50 [3]?
A: The IC50 was 64.8 nM.

Q: What about the fraction unbound at 1 h [4] of the same compound?
A: Its fraction unbound at 1 h is 0.08.

Q: What about the CLint scaled ([5]; human, pooled liver microsomes, calculated from t1/2 in HLM, read-out: In vitro CLint HLM) of the same compound?
A: Its CLint scaled is 4 mL/min/kg.

Q: What about the half-life ([5]; pooled liver microsomes, human liver microsomes, NADPH, read-out: Degradation half-life HLM) of the same compound?
A: Its half-life is > 2.5 h.

Q: And the “Estimated in vivo CLH HLM” value ([5]; protein binding data included)?
A: Its value is 12.6 mL/min/kg.

Q: What about the Vd ([6]; 5 mg/kg per table footnote) of the same compound?
A: Its Vd is 6.59 ± 1.83 L/kg.

Q: And the clearance ([6]; 5 mg/kg per table footnote)?
A: Its clearance is 28.5 ± 2.17 mL/min/kg.

Q: What about the half-life ([6]; 5 mg/kg per table footnote (10 mg/kg per method)) of the same compound?
A: Its half-life is 2.62 ± 0.61 h.
